Results from ChEMBL document CHEMBL5291721, “A preclinical secondary pharmacology resource illuminates target-adverse drug reaction associations of marketed drugs” (Nat Commun, 2023).
Values belong to the molecule of their own block, whether it stands above or below them.

What was measured:
[1] = target: Gamma-aminobutyric acid receptor subunit alpha-1 (Rattus norvegicus, UniProt P62813)
Vasopressin V2 receptor = Vasopressin V2 receptor (Homo sapiens, UniProt P30518)
Adenosine receptor A3 = target: T1, Adenosine receptor A3 (Homo sapiens, UniProt P0DMS8)
T1 sequence (P0DMS8 whole entry): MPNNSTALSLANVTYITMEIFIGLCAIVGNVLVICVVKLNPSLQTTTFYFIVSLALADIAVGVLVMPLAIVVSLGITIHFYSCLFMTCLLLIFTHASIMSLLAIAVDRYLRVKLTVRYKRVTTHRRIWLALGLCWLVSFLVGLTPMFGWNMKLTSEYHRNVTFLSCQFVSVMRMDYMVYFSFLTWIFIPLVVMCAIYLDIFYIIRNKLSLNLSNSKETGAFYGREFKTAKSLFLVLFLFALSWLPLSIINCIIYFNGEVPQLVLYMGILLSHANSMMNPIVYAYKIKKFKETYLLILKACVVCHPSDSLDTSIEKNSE

[2] = target: cGMP-inhibited 3',5'-cyclic phosphodiesterase 3A (Homo sapiens, UniProt Q14432); assay type: functional
[3] = target: T2, Muscarinic acetylcholine receptor M1 (Homo sapiens, UniProt P11229); assay type: functional
T2 sequence (P11229 whole entry): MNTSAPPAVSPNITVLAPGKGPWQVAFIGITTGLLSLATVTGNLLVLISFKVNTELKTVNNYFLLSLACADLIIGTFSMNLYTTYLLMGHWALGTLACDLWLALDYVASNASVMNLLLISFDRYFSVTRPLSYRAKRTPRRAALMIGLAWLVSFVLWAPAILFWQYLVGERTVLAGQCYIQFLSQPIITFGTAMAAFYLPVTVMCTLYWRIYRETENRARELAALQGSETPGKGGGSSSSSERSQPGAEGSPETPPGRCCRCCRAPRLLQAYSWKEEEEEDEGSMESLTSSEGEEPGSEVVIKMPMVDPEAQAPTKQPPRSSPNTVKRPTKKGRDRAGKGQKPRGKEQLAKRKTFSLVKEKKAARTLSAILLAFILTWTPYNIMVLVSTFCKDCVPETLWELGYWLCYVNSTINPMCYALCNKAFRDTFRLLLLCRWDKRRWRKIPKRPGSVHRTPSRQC

[4] = target: T3, 5-hydroxytryptamine receptor 3A (Homo sapiens, UniProt P46098); assay type: functional
T3 sequence (P46098 whole entry): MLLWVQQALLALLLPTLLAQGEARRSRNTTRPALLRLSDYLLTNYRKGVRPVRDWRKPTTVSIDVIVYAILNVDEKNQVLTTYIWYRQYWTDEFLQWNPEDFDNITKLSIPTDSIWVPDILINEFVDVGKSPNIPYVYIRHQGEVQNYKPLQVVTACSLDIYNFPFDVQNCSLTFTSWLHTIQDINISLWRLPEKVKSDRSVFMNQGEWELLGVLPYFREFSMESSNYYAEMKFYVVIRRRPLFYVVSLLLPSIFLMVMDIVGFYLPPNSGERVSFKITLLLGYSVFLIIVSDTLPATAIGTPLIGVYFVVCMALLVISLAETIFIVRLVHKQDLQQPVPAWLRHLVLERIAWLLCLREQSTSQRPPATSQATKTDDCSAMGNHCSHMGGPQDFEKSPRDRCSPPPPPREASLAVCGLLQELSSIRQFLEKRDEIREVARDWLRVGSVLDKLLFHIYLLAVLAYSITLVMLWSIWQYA

Motilin receptor = Motilin receptor (Homo sapiens, UniProt O43193)
Endothelin-1 receptor = target: T4, Endothelin-1 receptor (Homo sapiens, UniProt P25101)
T4 sequence (P25101 whole entry): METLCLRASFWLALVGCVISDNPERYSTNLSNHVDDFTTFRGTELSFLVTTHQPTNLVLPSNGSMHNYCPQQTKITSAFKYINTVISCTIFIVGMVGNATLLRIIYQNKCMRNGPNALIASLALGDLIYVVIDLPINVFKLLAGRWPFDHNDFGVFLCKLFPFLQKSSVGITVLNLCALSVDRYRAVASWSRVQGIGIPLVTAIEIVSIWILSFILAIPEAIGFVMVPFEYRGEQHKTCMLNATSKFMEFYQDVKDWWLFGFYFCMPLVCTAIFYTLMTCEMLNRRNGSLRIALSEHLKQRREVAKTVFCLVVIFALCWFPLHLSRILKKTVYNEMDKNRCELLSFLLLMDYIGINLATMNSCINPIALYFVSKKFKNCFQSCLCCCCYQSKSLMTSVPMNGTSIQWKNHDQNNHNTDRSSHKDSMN

[5] = target: T5, Alpha-2A adrenergic receptor (Homo sapiens, UniProt P08913); assay type: functional, cell-based
T5 sequence (P08913 whole entry): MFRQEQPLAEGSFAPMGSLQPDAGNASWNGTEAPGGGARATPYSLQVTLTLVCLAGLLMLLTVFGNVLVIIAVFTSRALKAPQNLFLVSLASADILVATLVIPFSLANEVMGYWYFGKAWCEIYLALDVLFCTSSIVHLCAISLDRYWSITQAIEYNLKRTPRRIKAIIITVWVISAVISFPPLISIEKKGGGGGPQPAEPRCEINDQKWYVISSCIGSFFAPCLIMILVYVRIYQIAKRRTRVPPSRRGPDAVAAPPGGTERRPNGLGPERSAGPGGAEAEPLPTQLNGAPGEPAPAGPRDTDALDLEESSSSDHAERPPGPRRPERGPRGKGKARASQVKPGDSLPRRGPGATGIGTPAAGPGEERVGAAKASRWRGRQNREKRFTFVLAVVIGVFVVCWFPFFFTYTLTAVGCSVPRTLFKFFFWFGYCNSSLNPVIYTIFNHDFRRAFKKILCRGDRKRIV
Note: assay procedure not described here.

Chain of cGMP-inhibited 3',5'-cyclic phosphodiesterase 3A (Q14432 whole entry): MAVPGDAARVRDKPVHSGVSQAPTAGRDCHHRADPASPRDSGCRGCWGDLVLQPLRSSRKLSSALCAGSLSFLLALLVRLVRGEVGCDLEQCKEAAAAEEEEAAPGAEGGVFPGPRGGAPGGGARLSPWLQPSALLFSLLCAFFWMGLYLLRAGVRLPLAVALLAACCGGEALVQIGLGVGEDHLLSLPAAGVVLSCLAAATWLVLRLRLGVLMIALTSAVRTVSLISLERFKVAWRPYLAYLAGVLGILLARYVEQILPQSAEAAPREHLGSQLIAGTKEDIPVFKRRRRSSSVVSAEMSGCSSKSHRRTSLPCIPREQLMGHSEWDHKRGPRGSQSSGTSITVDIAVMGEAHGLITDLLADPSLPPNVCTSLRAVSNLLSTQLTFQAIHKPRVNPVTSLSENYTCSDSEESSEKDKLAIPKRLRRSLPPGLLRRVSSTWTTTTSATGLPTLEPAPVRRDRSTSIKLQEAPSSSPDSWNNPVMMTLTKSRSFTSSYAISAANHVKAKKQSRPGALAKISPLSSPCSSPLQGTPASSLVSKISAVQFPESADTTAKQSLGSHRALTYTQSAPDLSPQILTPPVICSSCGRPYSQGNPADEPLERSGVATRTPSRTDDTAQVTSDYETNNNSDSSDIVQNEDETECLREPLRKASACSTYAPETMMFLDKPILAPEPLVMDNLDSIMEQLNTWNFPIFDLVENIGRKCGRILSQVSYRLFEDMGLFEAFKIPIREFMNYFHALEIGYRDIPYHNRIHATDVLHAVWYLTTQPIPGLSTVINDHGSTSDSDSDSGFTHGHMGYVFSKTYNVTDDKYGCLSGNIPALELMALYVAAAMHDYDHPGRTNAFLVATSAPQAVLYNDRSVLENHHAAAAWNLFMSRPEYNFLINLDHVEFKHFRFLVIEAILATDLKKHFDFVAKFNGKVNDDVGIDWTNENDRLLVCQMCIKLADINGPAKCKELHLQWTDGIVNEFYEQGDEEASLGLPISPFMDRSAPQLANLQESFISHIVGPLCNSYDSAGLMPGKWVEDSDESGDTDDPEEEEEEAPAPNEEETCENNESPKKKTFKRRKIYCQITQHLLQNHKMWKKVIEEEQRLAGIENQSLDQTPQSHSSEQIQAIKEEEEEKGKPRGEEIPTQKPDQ
Chain of Motilin receptor (O43193 whole entry): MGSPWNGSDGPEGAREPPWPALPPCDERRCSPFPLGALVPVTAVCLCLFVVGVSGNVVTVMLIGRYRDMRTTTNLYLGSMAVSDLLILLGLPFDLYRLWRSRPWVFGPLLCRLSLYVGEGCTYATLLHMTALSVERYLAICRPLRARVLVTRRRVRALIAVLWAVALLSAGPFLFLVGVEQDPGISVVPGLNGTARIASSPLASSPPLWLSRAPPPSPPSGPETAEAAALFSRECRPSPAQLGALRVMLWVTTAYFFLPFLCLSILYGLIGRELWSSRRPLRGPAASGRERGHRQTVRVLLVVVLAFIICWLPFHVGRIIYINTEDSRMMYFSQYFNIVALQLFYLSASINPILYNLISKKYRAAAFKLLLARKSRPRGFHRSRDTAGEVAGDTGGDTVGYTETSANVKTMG
Chain of Gamma-aminobutyric acid receptor subunit alpha-1 (P62813 whole entry): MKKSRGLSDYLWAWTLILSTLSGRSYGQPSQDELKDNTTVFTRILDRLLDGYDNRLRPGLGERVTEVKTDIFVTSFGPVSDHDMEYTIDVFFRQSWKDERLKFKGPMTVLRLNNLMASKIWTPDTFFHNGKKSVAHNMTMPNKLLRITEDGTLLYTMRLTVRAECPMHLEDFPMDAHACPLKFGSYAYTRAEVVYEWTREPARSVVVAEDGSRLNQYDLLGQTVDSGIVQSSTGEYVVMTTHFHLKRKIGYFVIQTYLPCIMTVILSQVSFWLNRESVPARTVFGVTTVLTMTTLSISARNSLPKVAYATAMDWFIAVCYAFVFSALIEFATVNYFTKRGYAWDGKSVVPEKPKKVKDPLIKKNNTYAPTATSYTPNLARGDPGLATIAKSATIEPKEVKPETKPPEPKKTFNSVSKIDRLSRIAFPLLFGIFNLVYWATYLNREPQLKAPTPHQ
Chain of Vasopressin V2 receptor (P30518 whole entry): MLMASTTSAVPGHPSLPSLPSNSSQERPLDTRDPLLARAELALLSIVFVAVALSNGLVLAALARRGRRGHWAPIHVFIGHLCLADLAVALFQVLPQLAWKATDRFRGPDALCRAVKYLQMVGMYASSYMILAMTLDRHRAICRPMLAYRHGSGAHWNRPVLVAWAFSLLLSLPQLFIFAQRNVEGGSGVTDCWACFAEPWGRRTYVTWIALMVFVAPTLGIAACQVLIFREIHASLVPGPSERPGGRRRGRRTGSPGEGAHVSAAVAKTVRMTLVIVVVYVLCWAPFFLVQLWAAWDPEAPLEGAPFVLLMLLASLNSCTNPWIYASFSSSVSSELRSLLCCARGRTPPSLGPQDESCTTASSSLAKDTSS

SMILES: CN1CCC[C@@H]1Cc1c[nH]c2ccc(CCS(=O)(=O)c3ccccc3)cc12
AC50 [1]: > 30 µM

SMILES: COc1nccnc1NS(=O)(=O)c1ccc(N)cc1
AC50 [1]: > 30 µM

SMILES: O=C(Nc1cccc2c(=O)cc(-c3nnn[nH]3)oc12)c1ccc(OCCCCc2ccccc2)cc1
AC50 [1]: > 30 µM

SMILES: NC(=O)c1nc(F)c[nH]c1=O
AC50 [1]: > 30 µM

SMILES: Cc1ccc([C@@H]2O[C@H](CO)[C@@H](O)[C@H](O)[C@H]2O)cc1Cc1ccc(-c2ccc(F)cc2)s1 [CANAGLIFLOZIN ANHYDROUS]
AC50 [1]: > 30 µM

AC50 (Vasopressin V2 receptor): > 30 µM | AC50 (Adenosine receptor A3): > 30 µM | AC50 [2]: > 30 µM | AC50 [3]: > 30 µM | AC50 [4]: > 30 µM | AC50 (Motilin receptor): > 30 µM | AC50 (Endothelin-1 receptor): > 30 µM | AC50 [5]: > 30 µM
SMILES: CO/N=C(\C(=O)N[C@@H]1C(=O)N2C(C(=O)O)=C(COC(N)=O)CS[C@H]12)c1ccco1 [CEFUROXIME]

SMILES: CN(C)CCN(Cc1ccc(Cl)cc1)c1ccccn1 [CHLOROPYRAMINE]
AC50 [1]: > 30 µM

SMILES: O=C(O)c1cc(=O)c2ccccc2o1 [CHROMOCARB]
AC50 [1]: > 30 µM

SMILES: N[C@@H](CSSC[C@H](N)C(=O)O)C(=O)O [CYSTINE]
AC50 [1]: > 30 µM

SMILES: C#Cc1cccc(Nc2ncnc3cc(OCCOC)c(OCCOC)cc23)c1 [ERLOTINIB]
AC50 (Adenosine receptor A3): 25 µM | AC50 [2]: > 30 µM | AC50 [3]: > 30 µM | AC50 [4]: > 30 µM | AC50 (Motilin receptor): > 30 µM | AC50 (Endothelin-1 receptor): > 30 µM | AC50 [5]: > 30 µM

SMILES: C[C@]12CC[C@@H]3c4ccc(O)cc4CC[C@H]3[C@@H]1CC[C@@H]2OC(=O)CCC1CCCC1 [ESTRADIOL CYPIONATE]
AC50 [1]: > 30 µM

SMILES: CC1(C)O[C@@H]2C[C@H]3[C@@H]4CCC5=CC(=O)CC[C@]5(C)[C@@]4(F)[C@@H](O)C[C@]3(C)[C@]2(C(=O)CCl)O1 [HALCINONIDE]
AC50 [1]: > 30 µM

SMILES: C[C@]12CCC(=O)C=C1CC[C@@H]1[C@@H]2[C@@H](O)C[C@@]2(C)[C@H]1CC[C@]2(O)C(=O)COC(=O)CCC(=O)O [HYDROCORTISONE HEMISUCCINATE ANHYDROUS]
AC50 [1]: > 30 µM

SMILES: N=C(N)NCc1cccc([123I])c1 [IOBENGUANE I 123]
AC50 [1]: > 30 µM

SMILES: C[C@H]1Oc2cc(cnc2N)-c2c(nn(C)c2C#N)CN(C)C(=O)c2ccc(F)cc21 [LORLATINIB]
AC50 (Adenosine receptor A3): 1.2 µM | AC50 [2]: > 30 µM | AC50 [3]: > 30 µM | AC50 [4]: > 30 µM | AC50 (Motilin receptor): > 30 µM | AC50 (Endothelin-1 receptor): > 30 µM | AC50 [5]: > 30 µM

SMILES: CC(C)(N)C(=O)N[C@H](Cc1c[nH]c2ccccc12)C(=O)N[C@H](Cc1c[nH]c2ccccc12)NC=O [MACIMORELIN]
AC50 [1]: > 30 µM
